# Laboratory results published in paper PMC9701171 (Journal of pharmaceutical and biomedical analysis, 2022).
# pKd: −log10 of the molar value. Where two headings read alike, the source gives them in different places.
# Experiments:
# HbA [1] = target: T1, HbA (Homo sapiens, UniProt P69905); assay: Steady-state concentration-dependent HbA binding; settings: for n (Hill coefficient): SS concentration-dependency; for fold enhancement of binding affinity (improvement of KD) relative to 5-HMF: compared to 5-HMF
# HbA [2] = target: T1, HbA; assay: Time-dependent HbA binding kinetics; settings: for time to equilibration with HbA: low [AEH]0, assuming first-order conditions; for time to achieve steady state (SS): 0.2 mM HbA, pilot observations
# HbA [3] = target: T1, HbA; settings: cited from earlier work
# HbS = settings: cited from earlier work
# [4] = Reference Method, sigmoidal Bmax model, PE (COV)
# T1 sequence (P69905 2-142 limits assumed): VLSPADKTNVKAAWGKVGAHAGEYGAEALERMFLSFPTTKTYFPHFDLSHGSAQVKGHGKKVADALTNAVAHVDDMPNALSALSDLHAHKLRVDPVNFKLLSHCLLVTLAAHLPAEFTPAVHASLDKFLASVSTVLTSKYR
# T1 sequence (P68871 2-147 partner limits assumed): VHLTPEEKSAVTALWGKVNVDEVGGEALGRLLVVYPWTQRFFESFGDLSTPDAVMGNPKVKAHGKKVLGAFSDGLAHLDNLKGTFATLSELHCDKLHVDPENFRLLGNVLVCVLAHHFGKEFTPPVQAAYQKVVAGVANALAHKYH
smiles,measurement,setting,value
"O=Cc1ccc(C=O)o1 [2,5-DMF, 2,5-Furandicarboxaldehyde]",pKd,HbA [1],3.72
same,n (Hill coefficient),"HbA [1]; sigmoidal Bmax model, PE (COV)",1.7(21%)
same,fold enhancement of binding affinity (improvement of KD) relative to 5-HMF,HbA [1],2 fold
same,pKd,HbA [2],3.92
same,koff,HbA [2]; read-out: koff (first-order dissociation rate constant),1.81e-05 s⁻¹
"O=Cc1ccc(CO)o1 [5-HMF, 5-Hydroxymethyl-2-furfural]",n (Hill coefficient),"HbA [1]; sigmoidal Bmax model, PE (COV)",1.1 (10%)
same,Bmax,"HbA [1]; Universal Method, sigmoidal Bmax model, PE (COV)",0.20 (6%)
same,time to equilibration with HbA,HbA [2],12 to 20 h
same,time to approach equilibrium,HbA [3]; 5-HMF in the presence of HbA,24 to 30 h
same,Bmax,HbA [3]; [4],0.092 (10%)
same,Bmax / HbA0,HbA [3]; [4],0.74 (10%)
same,pKd,HbA [3]; [4],3.55
same,pKd,"HbA [3]; read-out: binding affinity, 5-HMF in the presence of HbA",3.60
CC(C)n1nccc1-c1ncccc1COc1cccc(O)c1C=O [GBT-440],pKd,HbA [1],3.96
same,n (Hill coefficient),"HbA [1]; sigmoidal Bmax model, PE (COV)",1.6 (16%)
same,HbA modified to the HbA-AEH adduct at saturation,"HbA [1]; steady state, HbA solution",about 50%
same,time to achieve steady state (SS),HbA [2],≤ 120 s
COc1ccc(OCc2ccccn2)c(C=O)c1 [INN-310],n (Hill coefficient),"HbA [1]; sigmoidal Bmax model, PE (COV)",2.4 (20%)
same,HbS-AEH adduct (Hb modification),HbS,100%
O=Cc1c(O)cccc1OCc1cccc(CO)n1 [VZHE-039],n (Hill coefficient),"HbA [1]; sigmoidal Bmax model, PE (COV)",1.9 (34%)
same,fold enhancement of binding affinity (improvement of KD) relative to 5-HMF,HbA [1],less than 5 fold
same,time to achieve steady state (SS),HbA [2],< 360 s
same,fold shorter t1/2^eq relative to 5-HMF,HbA [2]; current experimental conditions,more than 50 fold
same,time to equilibration with HbA,HbA [2],less than half an hour
same,HbS-AEH adduct (Hb modification),HbS,100%
"COc1cc(C=O)ccc1O [Vanillin, 4-Hydroxy-5-methoxybenzaldehyde]",pKd,HbA [1],2.77
same,HbA modification,"HbA [1]; 5.8 mM, initial pilot study",< 100%
same,pKd,HbA [2],2.37
